Assay results from PMC10539439 (Pharmacological Reports, 2023).
Where “and” joins values, the source holds several entries; their conditions need not be identical. Identical values can stand only once. Like-named read-outs stand apart in the source and are kept apart here. Each block holds one molecule with its values, some of them ahead of it.

Assays:
α1-adrenoceptor = assay: Competitive radioligand-binding assay, [3H]prazosin; design: species or system rat
Method: (§1) 10 mM stock solutions of test compounds were prepared in DMSO. Serial dilutions of compounds were prepared in 96-well microplate in assay buffers using an automated pipetting system epMotion 5070 (Eppendorf, Poland). Each compound was tested in 6 concentrations of 1.0E-05 to 1.0E-10 M (final concentration).
(§2) Affinity towards α1- and α2-adrenoceptors was evaluated using the competitive radioligand-binding assay. Experiments were conducted in the rat cerebral cortex. Radioligand [3H]prazosin (84,2 Ci/mmol, α1-adrenoceptor, PerkinElmer, Poland, NET823001MC) and [3H]clonidine (70.5 Ci/mmol, α2-adrenoceptor, PerkinElmer, Poland, NET613250UC) were used. The membrane preparation and the assay procedure were carried out accordingly as previously published. Radioactivity was counted on the MicroBeta2 scintillation counter (PerkinElmer, Poland). Data were fitted to a one-site curve-fitting equation with Prism 8 (GraphPad Software, USA), and Ki values were estimated from the Cheng–Prusoff equation.

α2-adrenoceptor = target: T1, α2-adrenoceptor (Rattus norvegicus, UniProt P22909); assay: Competitive radioligand-binding assay, [3H]clonidine; conditions: ADRA2, experiments 1-3, duplicates
T1 sequence (P22909 1-465): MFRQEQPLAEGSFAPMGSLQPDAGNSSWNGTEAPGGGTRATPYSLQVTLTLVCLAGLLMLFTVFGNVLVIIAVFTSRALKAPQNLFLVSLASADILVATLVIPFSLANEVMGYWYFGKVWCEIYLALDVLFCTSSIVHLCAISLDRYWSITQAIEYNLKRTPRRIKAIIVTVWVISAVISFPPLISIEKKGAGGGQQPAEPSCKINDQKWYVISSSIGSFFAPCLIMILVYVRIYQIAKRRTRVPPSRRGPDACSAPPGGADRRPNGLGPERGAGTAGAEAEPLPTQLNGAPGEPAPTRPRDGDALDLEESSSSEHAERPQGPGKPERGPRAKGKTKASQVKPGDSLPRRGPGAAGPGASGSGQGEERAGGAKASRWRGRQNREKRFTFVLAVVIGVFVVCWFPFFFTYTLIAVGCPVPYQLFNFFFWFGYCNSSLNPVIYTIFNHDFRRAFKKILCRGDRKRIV
Method: as §1, §2

α2A-adrenoceptor = target: T2, α2A-adrenoceptor (Homo sapiens, UniProt P08913); assay: Intrinsic activity, Tango beta-lactamase reporter assay; type: cell-based; conditions: ADRAA2A
T2 sequence (P08913 1-465): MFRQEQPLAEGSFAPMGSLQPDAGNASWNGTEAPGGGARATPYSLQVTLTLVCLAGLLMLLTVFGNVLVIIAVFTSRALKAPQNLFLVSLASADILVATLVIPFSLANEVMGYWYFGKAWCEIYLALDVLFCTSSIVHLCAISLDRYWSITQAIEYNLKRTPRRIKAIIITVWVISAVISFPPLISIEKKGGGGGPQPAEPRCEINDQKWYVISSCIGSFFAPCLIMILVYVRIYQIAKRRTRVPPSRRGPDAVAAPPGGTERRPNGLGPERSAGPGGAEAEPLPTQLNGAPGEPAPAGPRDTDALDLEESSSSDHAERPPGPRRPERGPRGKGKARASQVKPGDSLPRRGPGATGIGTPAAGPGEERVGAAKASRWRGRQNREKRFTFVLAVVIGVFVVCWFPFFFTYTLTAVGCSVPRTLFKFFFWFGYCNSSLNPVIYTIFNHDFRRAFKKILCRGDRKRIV
Method: The intrinsic activity at α2A-adrenoceptor was assessed by the Tango assay technology that uses a mammalian-optimized beta-lactamase (bla) reporter gene combined with an FRET-enabled substrate to provide reliable and sensitive detection in cells. Cells are loaded with an engineered fluorescent substrate containing two fluorophores, coumarin, and fluorescein. In the absence of bla expression, the substrate molecule remains intact. In this state, excitation of the coumarin results in a transfer of fluorescence resonance energy to the fluorescein moiety and emission of green fluorescent light. However, in the presence of bla expression, the substrate is cleaved, separating the fluorophores and disrupting energy transfer. Excitation of the coumarin in the presence of bla enzyme activity results in a blue fluorescence signal.
Intrinsic activity assay was performed according to the manufacturer of the assay kit (Invitrogen, Life Technologies). Cells were harvested and resuspended in an assay medium at a density of 312,500 cells/ml. 32 μL per well of cell suspension was added to the test compound wells, the unstimulated control wells, and the stimulated control wells, and incubated for 16–24 h. To perform an agonist assay, 8 μL of 5 × of agonist in the assay medium was added to the cells. […] Then, the agonist and antagonist plates were incubated in a humidified incubator at 37 °C/5% CO2 for 5 h. After the incubation, 8 μL of LiveBLAzer™-FRET B/G substrate mixture (CCF4-AM) was loaded into cells in the absence of direct strong lighting, covered, and incubated at room temperature for 2 h.

Ki (α1-adrenoceptor; ADRA1, experiment 1, 2, 3, read-out: Ki, single experiments): 14.9 nM and 9.23 nM and 10.1 nM
Ki (α1-adrenoceptor; [3H] prazosin, rat cerebral cortex, mean ± SEM, n = 3, read-out: Ki): 11.3 ± 1.7 nM
SMILES: Cc1ccc(N(CC2=NCCN2)c2cccc(O)c2)cc1 [Phentolamine]

SMILES: CNC[C@H](O)c1cccc(O)c1 [Phenylephrine]
CPM (α2-adrenoceptor; log of molar concentration -5): 141 CPM and 116 CPM and 96 CPM and 109 CPM and 123 CPM and 92 CPM
CPM (α2-adrenoceptor; log of molar concentration -6): 126 CPM and 136 CPM and 132 CPM and 152 CPM and 190 CPM and 224 CPM
CPM (α2-adrenoceptor; log of molar concentration -7): 392 CPM and 260 CPM and 300 CPM and 297 CPM and 293 CPM
CPM (α2-adrenoceptor; log of molar concentration -8): 433 CPM and 441 CPM and 410 CPM and 390 CPM and 339 CPM and 367 CPM
CPM (α2-adrenoceptor; log of molar concentration -9): 380 CPM and 398 CPM and 394 CPM and 410 CPM and 367 CPM and 391 CPM
CPM (α2-adrenoceptor; log of molar concentration -10): 502 CPM and 429 CPM and 290 CPM and 400 CPM and 415 CPM and 423 CPM

% of max response (α2A-adrenoceptor; antagonist vs brimonidine EC80, concentration 1e-11): 99.193% and 99.631%
% of max response (α2A-adrenoceptor; antagonist vs brimonidine EC80, concentration 1e-10): 89.6162%
% of max response (α2A-adrenoceptor; antagonist vs brimonidine EC80, concentration 1e-9): 70.6442% and 68.4607%
% of max response (α2A-adrenoceptor; antagonist vs brimonidine EC80, concentration 1e-8): 17.048% and 15.1589%
% of max response (α2A-adrenoceptor; antagonist vs brimonidine EC80, concentration 1e-7): 6.64%
% of max response (α2A-adrenoceptor; antagonist vs brimonidine EC80, concentration 1e-6): 8.3079%
SMILES: COC(=O)[C@@H]1[C@H]2C[C@H]3c4[nH]c5ccccc5c4CCN3C[C@@H]2CC[C@@H]1O [Yohimbine]

SMILES: Brc1c(NC2=NCCN2)ccc2nccnc12 [brimonidine]
% of max response (α2A-adrenoceptor; agonist, concentration 1e-11): -0.4968% and 2.419% and -2.234% and 0.961%
% of max response (α2A-adrenoceptor; agonist, concentration 1e-10): 2.567% and 0.2495% and -1.378% and 1.408%
% of max response (α2A-adrenoceptor; agonist, concentration 1e-9): 4.21% and 2.461% and -0.5064% and 3.335%
% of max response (α2A-adrenoceptor; agonist, concentration 1e-8): 48.0757% and 59.1796% and 30.9499% and 53.6276%
% of max response (α2A-adrenoceptor; agonist, concentration 1e-7): 88.9964% and 81.4266%
